How the values were obtained:
Assay in all cases: kinase binding screen (kinase-tagged T7 phage, qPCR), % Ctrl
[1] = molecular target: PIK4CB (Homo sapiens, UniProt Q9UBF8)
Summary of the method: (§1)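 Competition binding: kinase-tagged T7 phage (grown in BL21-derived E. coli, lysed at 32° C) incubated with immobilized ligand on biotin-blocked beads plus test compound; bound kinase in eluates quantified by qPCR. Compounds tested at a single set concentration, added from 40× DMSO stocks.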

[2] = molecular target: T1, CDKL5 (Homo sapiens, UniProt O76039)
T1 sequence (O76039 1-960): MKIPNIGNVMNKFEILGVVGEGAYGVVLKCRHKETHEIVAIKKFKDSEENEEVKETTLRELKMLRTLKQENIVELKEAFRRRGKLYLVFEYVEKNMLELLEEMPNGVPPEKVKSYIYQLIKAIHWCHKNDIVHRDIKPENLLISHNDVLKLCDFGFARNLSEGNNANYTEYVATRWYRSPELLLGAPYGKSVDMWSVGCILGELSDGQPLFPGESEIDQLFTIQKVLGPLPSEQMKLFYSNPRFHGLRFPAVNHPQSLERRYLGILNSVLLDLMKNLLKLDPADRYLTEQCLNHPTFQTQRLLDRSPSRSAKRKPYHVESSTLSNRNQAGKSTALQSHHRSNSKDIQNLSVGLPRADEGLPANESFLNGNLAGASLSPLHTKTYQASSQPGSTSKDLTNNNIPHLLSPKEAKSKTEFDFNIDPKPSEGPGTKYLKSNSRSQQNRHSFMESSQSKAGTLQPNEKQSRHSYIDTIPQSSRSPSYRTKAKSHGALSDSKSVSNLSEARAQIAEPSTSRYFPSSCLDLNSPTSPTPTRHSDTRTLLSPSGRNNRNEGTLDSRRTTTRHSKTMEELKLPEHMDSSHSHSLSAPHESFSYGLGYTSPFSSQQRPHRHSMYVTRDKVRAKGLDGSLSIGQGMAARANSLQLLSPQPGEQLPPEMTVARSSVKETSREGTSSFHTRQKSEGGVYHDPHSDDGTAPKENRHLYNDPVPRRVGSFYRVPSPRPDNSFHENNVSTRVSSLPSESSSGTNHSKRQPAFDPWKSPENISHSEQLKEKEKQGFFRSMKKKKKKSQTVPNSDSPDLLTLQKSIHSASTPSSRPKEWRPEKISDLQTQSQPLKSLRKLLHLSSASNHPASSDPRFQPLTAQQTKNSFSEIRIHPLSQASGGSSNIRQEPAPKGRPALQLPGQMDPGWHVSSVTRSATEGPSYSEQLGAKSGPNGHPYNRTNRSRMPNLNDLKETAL
Summary of the method: as §1

[3] = molecular target: T2, MAP3K2 (Homo sapiens, UniProt Q9Y2U5)
T2 sequence (Q9Y2U5 1-619): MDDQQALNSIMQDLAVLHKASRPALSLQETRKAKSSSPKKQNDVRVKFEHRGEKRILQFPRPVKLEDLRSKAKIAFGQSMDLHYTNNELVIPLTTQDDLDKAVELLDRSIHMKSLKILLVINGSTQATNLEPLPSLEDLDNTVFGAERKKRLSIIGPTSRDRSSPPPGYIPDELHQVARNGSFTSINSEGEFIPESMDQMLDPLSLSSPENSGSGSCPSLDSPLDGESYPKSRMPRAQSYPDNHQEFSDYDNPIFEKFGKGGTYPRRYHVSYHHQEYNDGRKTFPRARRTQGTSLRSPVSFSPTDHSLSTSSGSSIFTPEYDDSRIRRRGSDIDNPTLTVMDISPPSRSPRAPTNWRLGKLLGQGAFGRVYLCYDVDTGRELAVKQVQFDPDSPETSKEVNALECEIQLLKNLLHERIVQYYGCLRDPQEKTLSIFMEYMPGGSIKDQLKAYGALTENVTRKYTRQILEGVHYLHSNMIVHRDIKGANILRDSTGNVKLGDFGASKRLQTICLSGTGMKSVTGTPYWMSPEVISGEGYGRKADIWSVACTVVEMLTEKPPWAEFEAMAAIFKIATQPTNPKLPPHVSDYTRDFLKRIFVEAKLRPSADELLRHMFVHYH
Summary of the method: as §1

Sequence of PIK4CB (Q9UBF8 whole entry, species assumed): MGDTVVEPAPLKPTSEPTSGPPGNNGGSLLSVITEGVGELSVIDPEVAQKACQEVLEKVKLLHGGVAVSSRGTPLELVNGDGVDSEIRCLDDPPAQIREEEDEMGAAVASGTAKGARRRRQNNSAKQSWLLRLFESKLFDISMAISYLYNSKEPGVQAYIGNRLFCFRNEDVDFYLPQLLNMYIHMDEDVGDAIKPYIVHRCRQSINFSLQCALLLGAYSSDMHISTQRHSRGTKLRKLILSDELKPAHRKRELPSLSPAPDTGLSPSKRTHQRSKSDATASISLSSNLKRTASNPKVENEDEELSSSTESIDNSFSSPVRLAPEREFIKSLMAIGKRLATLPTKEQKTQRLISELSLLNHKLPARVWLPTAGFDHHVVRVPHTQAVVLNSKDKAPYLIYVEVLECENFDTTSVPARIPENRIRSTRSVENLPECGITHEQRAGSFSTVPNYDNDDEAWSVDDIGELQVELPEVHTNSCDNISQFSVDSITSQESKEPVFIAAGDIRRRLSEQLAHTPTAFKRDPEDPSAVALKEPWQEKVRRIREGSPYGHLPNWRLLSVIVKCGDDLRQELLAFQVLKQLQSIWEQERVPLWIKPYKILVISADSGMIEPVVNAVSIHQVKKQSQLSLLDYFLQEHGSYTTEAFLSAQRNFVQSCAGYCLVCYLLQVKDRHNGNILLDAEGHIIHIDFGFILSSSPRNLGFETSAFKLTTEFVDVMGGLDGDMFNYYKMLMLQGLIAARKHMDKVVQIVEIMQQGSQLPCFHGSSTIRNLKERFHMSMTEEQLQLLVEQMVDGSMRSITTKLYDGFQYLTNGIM

Row | remaining activity at 10 µM ([1]; 10 μM) | remaining activity at 10 µM ([2]; 10 μM) | remaining activity at 10 µM ([3]; 10 μM) | SMILES | remaining activity at 1 µM [1] | remaining activity at 1 µM [2] | remaining activity at 1 µM [3]
1 | 50% | 40% | 70% | Nc1nc2c(-c3cc(Br)c(Br)[nH]3)nccc2[nH]1 [Ageladine A, ageladine A, reference compound] | 66% | 54% | 73%
2 |  |  |  | Nc1nc2c(-c3ccccn3)nccc2[nH]1 [drawing 35, 4-(pyrid-2-yl)-1H-imidazo[4,5-c]pyridin-2-amine] | 88% | 50% | 54%
3 |  |  |  | Nc1nc2c(-c3cnc4ccccc4c3)nccc2[nH]1 [drawing 36, 4-(quinolin-3-yl)-1H-imidazo[4,5-c]pyridin-2-amine] | 37% | 54% | 81%
